Measurements reported in patent US9604974B2, “Compounds as modulator of JAK-STAT pathway, methods and applications thereof” (UNIVERSITY OF MYSORE, priority 2015, dated 2017).

Test system: STAT3
Assay: STAT3 DNA binding TransAM ELISA on nuclear extracts
Format: cell-based, human
Conditions: HepG2 nuclear extracts, 10 μMol/L CIMO
Procedure: It is further investigated whether CIMO modulates STAT3 DNA binding activity in HepG2 cells, since it is known that STAT3 dimer translocates into the nucleus and binds to specific DNA nucleotide sequence to regulate gene expression. DNA binding assay is performed using a STAT3 DNA binding TransAM™ ELISA kit (Active Motif, Carlsbad, Calif., USA). Briefly, nuclear extracts (5 μg) from CIMO-treated cells are incubated in a 96-well plate coated with oligonucleotide containing the STAT3-specific DNA probe. Bound STAT3 is then detected by a specific primary antibody. An HRP-conjugated secondary antibody is subsequently applied to detect the bound primary antibody and provided the basis for colorimetric quantification. The enzymatic product is measured at 450 nm with a microplate reader (Tecan Systems, San Jose, Calif., USA). Specificity of this assay is tested by the addition of wild-type or mutated STAT3 consensus oligonucleotide in the competitive or mutated competitive control wells before the addition of the nuclear extracts.

With `COc1ccc(C2CNC(c3cn(Cc4ccc(-c5ccccc5C#N)cc4)c4ccccc34)OC23CCCCC3)cc1` (stereo not shown) [Compound 1] the “binding of STAT3 to the DNA” value was “suppresses the binding of STAT3 to the DNA in a time-dependent manner”.
